In the assay the test system is Aedes aegypti. As to the kind of experiment: Insecticidal in Aedes aegypti fourth instar mosquito larvae after 24 hrs. In kind it is functional.

Values after ≈ are worked out from the molar mass of the structure shown.

As a reminder, the LC50 is the concentration lethal to half of the exposed cells or organisms. Read a low LC50 as greater toxicity. `CC[C@H](C)[C@H]1OC(=O)[C@H](Cc2ccccc2)N(C)C(=O)[C@@H](C(C)C)OC(=O)[C@H](Cc2ccccc2)N(C)C(=O)[C@@H](C(C)C)OC(=O)[C@H](Cc2ccccc2)N(C)C1=O` [BEAUVERICIN A] gave an LC50 of 31 µg/mL (≈ 38.8 µM).
Compound `CC(C)[C@@H]1OC(=O)[C@@H](Cc2ccccc2)N(C)C(=O)[C@H](C(C)C)OC(=O)[C@@H](Cc2ccccc2)N(C)C(=O)[C@H](C(C)C)OC(=O)[C@@H](Cc2ccccc2)N(C)C1=O` [BEAUVERICIN] yielded an LC50 of 26 µg/mL (≈ 33.2 µM).

For the origin of these results see ChEMBL document CHEMBL1159247, “Isolation of Novel Beauvericin Analogues from the Fungus Beauveria bassiana” (1995).
